Laboratory results as given in patent publication US20090123501A1, “INHIBITION OF THE SH2-DOMAIN CONTAINING PROTEIN TYR-PHOSPHATASE, SHP-1, TO ENHANCE VACCINES” (Baylor College of Medicine, priority 2007, published 2009).

Key:
D2SC/1 cells = assay: Cell death of D2SC/1 cells after adenoviral infection; type: cell-based, murine; details: D2SC/1 cells, 40,000 viral particles/cell
endogenous SHP-1 protein = assay: Knock-down of endogenous SHP-1 protein in D2SC/1 cells, western blot with densitometry; type: cell-based, murine; details: D2SC/1 cells, 40,000 viral particles/cell
Method: The high titer adenoviral preparation of SHP-1 specific Ad-shRNA#1149 (referred to from this point on as Ad5-SHP-1-shRNA), produced in the Viral Vector Core Laboratory at Baylor College of Medicine, was tested for its ability to knock-down endogenous SHP-1 protein in D2SC/1 cells, a murine dendritic-like cell line. […] A titration of Ad5-SHP-1 shRNA viral particles was performed and SHP-1 protein expression was determined by western blot (FIG. 3). […] This dose was chosen for subsequent studies using mouse bone marrow derived dendritic cells (BMDCs).
FIG. 3 describes the knock-down of endogenous SHP-1 using high titer Ad5-SHP-1 shRNA. SHP-1 protein expression was measured in D2SC/1 cells following infection with Ad5-SHP-1 at varying doses as shown. Protein levels were analyzed by western blot with a SHP-1 specific antibody. As controls, SHP-1 expression is shown for uninfected cells and those infected with the Ad5-scrambled shRNA. The blot was also probed with a calnexin specific antibody as a loading control. Densitometry analysis of the western is shown below as a percentage of SHP-1 expression level relative to cells infected with Ad5-scrambled shRNA.

SHP-1 mRNA = SHP-1 mRNA knock-down by quantitative RT-PCR in RAW cells; type: cell-based, murine; details: relative to no virus treatment
From the text: Two mouse SHP-1 specific small hairpin RNAs (shRNA) sequences, 272 and 1149, (referred to by their nucleotide position from the start site of the coding sequence in Genbank mRNA Accession #BC012660) were designed and cloned into the adenoviral vector pAd-BLOCK-iT-DEST RNAi (Invitrogen, Carlsbad, Calif.) which provides U6 polymerase […] promoter-driven expression of the shRNA. The exemplary shRNA sequences Ad5-shRNA#1149 (SEQ ID NO:11) and Ad5-shRNA#272 (SEQ ID NO:12) are provided as follows: […] (SEQ ID NO:11) and […] (SEQ ID NO:12), wherein sequence underlined in the shRNA is the exemplary SHP-1 specific palandromic 21-mer. Adenovirus carrying the appropriate sequence were produced and expanded in HEK-293 cells (ATCC Manassas, Va.). These viruses were then plaque purified and the ability to knock-down SHP-1 mRNA was tested in RAW cells, a murine macrophage-like cell line, by quantitative RT-PCR and are shown as a percent of the no virus treatment (FIG. 2A and FIG. 2B). Adenovirus expressing green fluorescent protein was used as a negative control for viral treatment (FIG. 2C). […] The ability of this shRNA to knock down SHP-1 protein was examined by western blot (FIG. 2D). A large scale, high titer, preparation of Ad-shRNA#1149 was produced by the Viral Vector Core Laboratory at Baylor College of Medicine and used in subsequent studies.

total splenocytes = assay: T cell subsets in total splenocytes 7 days after DC vaccination, flow cytometry; type: in vivo, C57BL/6 mice; details: by viral treatment, peptides pooled
Method: To determine the effect of SHP-1 inhibition on the initiation of T cell responses, BMDCs were cultured and CD11c^+ MACS purified as described above. […] Following peptide loading DCs were left untreated or transduced with one of 3 different adenoviral vectors: 1) Ad5-SHP-1-shRNA; 2) Ad5-scrambled-shRNA; or 3) Ad5-CMV-empty, an adenovirus carrying a CMV promoter expression vector but no insert. […] Using all combinations of peptide and virus treatment yielded 9 experimental vaccines and one no vaccine control. Vaccines (2×10^6 DCs) were injected i.p. into wt C57BL/6 mice. Seven days following vaccination mice were sacrificed and total splenocytes were analyzed by multi-color flow cytometry for the expression of several T cell subsets. CD3^+ CD8^+IFNγ^+ cells were characterized as CTL effectors, CD3^+ CD4^+IFNγ^+ cells were characterized as Th1 helper T cells, and CD4^+ FOXP3^+ cells were characterized as Treg cells. Flow cytometry data were analyzed by one-way analysis of variance (ANOVA) and Tukey-Kramer HSD multiple comparisons test for percentage of cells falling within each population following treatment. Cells were stained with anti-CD3, anti-CD8 and anti IFNγ to differentiate CD8^+ effectors and CD4^+ Th1 T cell skewing or anti-CD4 and anti-FOXP3 to determine Tregs. To determine if there was a peptide specific effects between the 3 different tumor antigens, viral treatments were pooled for each peptide exposure. Data represent the averages 6 mice per peptide treatment group and 2 mice in the no treatment control group. No significant differences were seen between peptides in the induction of Tregs or CD8^+ effector cells.
(§1) Following peptide loading DCs were left untreated or transduced with one of 3 different adenoviral vectors: 1) Ad5-SHP-1-shRNA; 2) Ad5-scrambled-shRNA; or 3) Ad5-CMV-empty, an adenovirus carrying a CMV promoter expression vector but no insert. Vaccines were injected i.p. into wt C57BL/6 mice and T cell skewing analyzed 7 days later by flow cytometry from total splenocytes. Cells were stained with anti-CD3, anti-CD8 and anti IFNγ for effector and Th1 cells or anti-CD4 and anti-FOXP3 for Tregs. For the peptide specific analysis viral treatments were pooled for each peptide exposure. Data represent the averages 6 mice per peptide treatment and two mice in the no treatment control group. The green diamonds represent the mean and 95% confidence interval for each group from the ANOVA. The black line is the mean of means for the study and red asterisk (*) indicates significant differences (p<0.05 by Tukey-Kramer HSD multiple comparisons test).
as §1, with “the SHP-1” for “the peptide”, “each viral treatment.” for “each peptide exposure.”, “and 2” for “and two”, “ANOVA. […]” for “ANOVA. The black line is the mean of means for the study and red asterisk (*) indicates significant differences (p<0.05 by Tukey-Kramer HSD multiple comparisons test).”

[1] = 2×10^6 DCs i.p., day 7, vs no vaccine control

## CACCGGAGCATGACACAGCAGAATACGAATATTCTGCTGTGTCATGCTCC (chemistry not given here) [Ad5-SHP-1-shRNA]
D2SC/1 cells
  cell death: minimal cell death
Endogenous SHP-1 protein
  decrease in endogenous SHP-1 protein: 95%
SHP-1 mRNA
  reduction in SHP-1 mRNA: > 5 fold reduction
Total splenocytes; [1]
  proportion of CD4+ Th1 skewed T cells (CD3+CD4+IFNγ+): significantly higher proportion
  proportion of CD8+ effector cells (CD3+CD8+IFNγ+): significantly higher proportion
Total splenocytes; day 7, vs empty viral control
  percentage of Tregs (CD4+FOXP3+): significantly decreased the percentage of Tregs
